Data on 23 molecules can be found in ChEMBL document CHEMBL4270508, “1,3,5-Triazines: A promising scaffold for anticancer drugs development” (Eur J Med Chem, 2017).

Assay [1] concerns Panel NCI-60 (60 carcinoma cell lines). The assay is described as follows: Growth inhibition of human NCI60 cells incubated for 48 hrs by SRB assay. The class given is functional, cell-based.
Assay [2] concerns MCF7. The assay is described as follows: Antiproliferative activity in human MCF7 cells assessed as inhibition of cell proliferation. The class given is functional, cell-based.
The subject of assay [3] is MDA-MB-231. The assay is described as follows: Antiproliferative activity in human MDA-MB-231 cells assessed as inhibition of cell proliferation. The class given is functional, cell-based.
Assay [4] concerns PC-3. In words: Cytotoxicity in human PC3 cells assessed as reduction in cell viability incubated for 72 hrs by MTT assay. It is filed as functional, cell-based. To be noted: PC-3, 72 h.
In assay [5] the test system is K562. In words: Cytotoxicity in human K562 cells assessed as reduction in cell viability incubated for 72 hrs by MTT assay. It is filed as functional, cell-based. Conditions: K562, 72 h.
Assay [6] is described as follows: Cytotoxicity in human HO8910 cells assessed as reduction in cell viability incubated for 72 hrs by MTT assay. To be noted: HO-8910, 72 h. It is filed as functional, cell-based.
Assay [7] relates to HT-29. In words: Anticancer activity against human HT-29 cells incubated for 48 hrs by MTT assay. Conditions: HT-29, 48 h. It is filed as functional, cell-based.
Assay [8] concerns MCF7. In words: Anticancer activity against human MCF7 cells incubated for 48 hrs by MTT assay. Conditions: MCF7, 48 h. The class given is functional, cell-based.
For assay [9], the system named is HGC-27. The assay is described as follows: Anticancer activity against human HGC27 cells incubated for 48 hrs by MTT assay. It is filed as functional, cell-based. Conditions: HGC-27, 48 h.
For assay [10], the system named is MDA-MB-231. In words: Anticancer activity against human MDA-MB-231 cells incubated for 48 hrs by MTT assay. The class given is functional, cell-based. To be noted: MDA-MB-231, 48 h.
Assay [11] deals with NCI-H460. The assay is described as follows: Antiproliferative activity in human NCI-H460 cells incubated for 72 hrs by MTT assay. To be noted: NCI-H460, 72 h. It is filed as functional, cell-based.
The subject of assay [12] is A549. The assay is described as follows: Antiproliferative activity in human A549 cells assessed as inhibition of cell proliferation by MTT assay. It is filed as functional, cell-based.
The target of assay [13] is Ubiquitin-conjugating enzyme E2 B (Homo sapiens, UniProt P63146). In words: Inhibition of human recombinant Rad6B using ubiquitin and histone H2A and ubiquitin-activating enzyme E1 preincubated for 1 hr before ubiquitin and histone H2A addition by SDS-PAGE and immunoblotting analysis.
In assay [14] the test system is HepG2. In words: Anticancer activity against human HepG2 cells incubated for 48 hrs by SRB assay. To be noted: HepG2, 48 h. It is filed as functional, cell-based.
Assay [15] deals with MCF7. The assay is described as follows: Anticancer activity against human MCF7 cells incubated for 48 hrs by SRB assay. The class given is functional, cell-based. To be noted: MCF7, 48 h.
The species named for assay [16] is Homo sapiens. The assay is described as follows: Inhibition of PI3K in human A549 cell lysates assessed as remaining enzyme activity at 1 uM pre-incubated for 5 mins before [gamma-32P]ATP addition and further incubated for 20 mins by TLC and autoradiography relative to untreated control.
In assay [17] the test system is HT-29. The assay is described as follows: Antiproliferative activity in human HT-29 cells incubated for 72 hrs by MTT assay. It is filed as functional, cell-based. Conditions: HT-29, 72 h.
The test system of assay [18] is MDA-MB-231. In words: Antiproliferative activity in human MDA-MB-231 cells incubated for 72 hrs by MTT assay. The class given is functional, cell-based. Conditions: MDA-MB-231, 72 h.
The subject of assay [19] is SK-BR-3. The assay is described as follows: Antiproliferative activity in human SK-BR-3 cells assessed as inhibition of cell proliferation by SRB/MTT assay. The class given is functional, cell-based.
Assay [20] deals with A549. In words: Antiproliferative activity in human A549 cells assessed as inhibition of cell proliferation by SRB/MTT assay. It is filed as functional, cell-based.
For assay [21], the system named is K562. In words: Antiproliferative activity in human K562 cells assessed as inhibition of cell proliferation by SRB/MTT assay. It is filed as functional, cell-based.
Assay [22] has as its system HCT-116. In words: Antiproliferative activity in human HCT116 cells assessed as inhibition of cell proliferation by SRB/MTT assay. The class given is functional, cell-based.
Assay [23] has as its system BT-474. In words: Antiproliferative activity in human BT474 cells assessed as inhibition of cell proliferation by SRB/MTT assay. It is filed as functional, cell-based.
A short description of assay [24]: Inhibition of rhodamine-labeled purified porcine brain tubulin polymerization in presence of GTP incubated for 30 mins by epifluorescence microscopy. The arrangement: species or system Sus scrofa.
Assay [25] deals with Cyclin-dependent kinase 5/CDK5 activator 1 (Homo sapiens, UniProt Q00535). The assay is described as follows: Inhibition of human recombinant CDK5/p25 using histone H1 and [gamma-33P]ATP incubated fro 30 mins by scintillation counting analysis. The class given is protein-complex assay.
Assay [26] can be described thus: Inhibition of starfish oocytes CDK1/cyclin B using histone H1 and [gamma-33P]ATP incubated fro 30 mins by scintillation counting analysis. The arrangement: species or system Asteroidea.
Assay [27] addresses Cyclin-dependent kinase 7/ cyclin H (Homo sapiens, UniProt P50613). The assay is described as follows: Inhibition of human recombinant CDK7/cyclin H using histone H1 and [gamma-33P]ATP incubated fro 30 mins by scintillation counting analysis. The class given is protein-complex assay.
Assay [28] addresses CDK9/cyclin T1 (Homo sapiens, UniProt P50750). In words: Inhibition of human recombinant CDK9/cyclin T expressed in insect cells using pRb fragment (773 to 928 amino acids) and [gamma-33P]ATP incubated fro 30 mins by scintillation counting analysis.

Values after ≈ are worked out from the molar mass of the structure shown.

Cyclin-dependent kinase 5/CDK5 activator 1, sequence (Q00535 whole entry): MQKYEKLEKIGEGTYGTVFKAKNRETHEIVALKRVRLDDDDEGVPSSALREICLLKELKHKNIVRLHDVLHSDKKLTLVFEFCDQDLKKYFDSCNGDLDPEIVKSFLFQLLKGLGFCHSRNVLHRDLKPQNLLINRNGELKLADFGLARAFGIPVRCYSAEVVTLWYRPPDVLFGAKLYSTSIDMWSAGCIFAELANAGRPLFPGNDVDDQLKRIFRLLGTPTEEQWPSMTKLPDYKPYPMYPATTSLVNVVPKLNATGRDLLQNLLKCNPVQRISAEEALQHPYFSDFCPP
Cyclin-dependent kinase 5/CDK5 activator 1, sequence (Q15078 whole entry, further chain): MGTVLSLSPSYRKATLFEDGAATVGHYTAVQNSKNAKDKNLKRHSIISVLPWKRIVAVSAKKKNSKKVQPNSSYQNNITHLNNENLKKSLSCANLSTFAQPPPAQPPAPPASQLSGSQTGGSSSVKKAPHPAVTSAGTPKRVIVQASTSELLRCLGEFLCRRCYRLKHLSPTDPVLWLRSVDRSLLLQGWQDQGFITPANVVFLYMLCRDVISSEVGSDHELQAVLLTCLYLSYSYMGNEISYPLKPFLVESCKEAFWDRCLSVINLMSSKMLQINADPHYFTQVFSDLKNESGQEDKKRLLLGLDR
Ubiquitin-conjugating enzyme E2 B, sequence (P63146 whole entry): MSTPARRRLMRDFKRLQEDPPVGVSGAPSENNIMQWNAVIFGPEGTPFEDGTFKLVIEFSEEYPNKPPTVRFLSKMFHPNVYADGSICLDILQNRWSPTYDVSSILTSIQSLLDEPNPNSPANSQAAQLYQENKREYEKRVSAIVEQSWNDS
Cyclin-dependent kinase 7/ cyclin H, sequence (P51946 whole entry, the tested form may be a part): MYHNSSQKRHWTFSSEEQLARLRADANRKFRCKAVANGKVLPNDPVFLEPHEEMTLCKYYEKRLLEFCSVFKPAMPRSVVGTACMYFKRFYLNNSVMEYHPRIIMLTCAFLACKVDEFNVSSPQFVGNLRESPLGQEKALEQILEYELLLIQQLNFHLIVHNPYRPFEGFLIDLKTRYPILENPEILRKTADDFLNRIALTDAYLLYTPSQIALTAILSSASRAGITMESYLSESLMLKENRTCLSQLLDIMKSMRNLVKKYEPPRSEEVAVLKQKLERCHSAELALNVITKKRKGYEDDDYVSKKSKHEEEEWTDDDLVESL
Cyclin-dependent kinase 7/ cyclin H, sequence (P50613 whole entry, the tested form may be a part): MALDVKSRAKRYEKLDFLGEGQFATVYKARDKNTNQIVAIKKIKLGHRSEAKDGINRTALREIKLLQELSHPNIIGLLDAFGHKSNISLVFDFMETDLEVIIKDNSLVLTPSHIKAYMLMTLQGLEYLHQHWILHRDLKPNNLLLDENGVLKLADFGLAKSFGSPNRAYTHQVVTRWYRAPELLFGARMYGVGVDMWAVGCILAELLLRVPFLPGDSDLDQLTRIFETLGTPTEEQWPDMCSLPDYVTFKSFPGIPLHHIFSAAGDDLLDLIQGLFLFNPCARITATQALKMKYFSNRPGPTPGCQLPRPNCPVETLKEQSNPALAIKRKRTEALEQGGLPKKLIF
CDK9/cyclin T1, sequence (O60563 whole entry, the tested form may be a part): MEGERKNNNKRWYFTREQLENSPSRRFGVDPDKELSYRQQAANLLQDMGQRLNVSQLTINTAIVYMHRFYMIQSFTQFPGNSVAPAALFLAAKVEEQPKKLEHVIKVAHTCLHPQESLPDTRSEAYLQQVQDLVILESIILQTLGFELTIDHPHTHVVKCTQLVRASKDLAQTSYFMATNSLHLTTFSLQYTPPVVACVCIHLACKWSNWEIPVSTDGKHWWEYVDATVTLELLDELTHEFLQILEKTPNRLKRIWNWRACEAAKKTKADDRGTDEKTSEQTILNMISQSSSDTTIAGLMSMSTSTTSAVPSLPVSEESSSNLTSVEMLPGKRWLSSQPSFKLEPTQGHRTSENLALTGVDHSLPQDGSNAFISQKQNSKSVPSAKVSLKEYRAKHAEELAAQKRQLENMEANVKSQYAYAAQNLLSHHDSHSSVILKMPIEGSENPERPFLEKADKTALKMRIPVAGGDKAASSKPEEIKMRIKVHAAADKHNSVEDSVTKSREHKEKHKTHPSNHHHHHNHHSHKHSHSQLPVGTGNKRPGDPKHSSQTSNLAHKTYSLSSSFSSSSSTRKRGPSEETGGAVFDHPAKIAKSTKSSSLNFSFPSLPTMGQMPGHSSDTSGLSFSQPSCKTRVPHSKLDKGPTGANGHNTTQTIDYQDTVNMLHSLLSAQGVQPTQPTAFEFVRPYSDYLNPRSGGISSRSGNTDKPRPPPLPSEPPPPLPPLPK
CDK9/cyclin T1, sequence (P50750 whole entry, the tested form may be a part): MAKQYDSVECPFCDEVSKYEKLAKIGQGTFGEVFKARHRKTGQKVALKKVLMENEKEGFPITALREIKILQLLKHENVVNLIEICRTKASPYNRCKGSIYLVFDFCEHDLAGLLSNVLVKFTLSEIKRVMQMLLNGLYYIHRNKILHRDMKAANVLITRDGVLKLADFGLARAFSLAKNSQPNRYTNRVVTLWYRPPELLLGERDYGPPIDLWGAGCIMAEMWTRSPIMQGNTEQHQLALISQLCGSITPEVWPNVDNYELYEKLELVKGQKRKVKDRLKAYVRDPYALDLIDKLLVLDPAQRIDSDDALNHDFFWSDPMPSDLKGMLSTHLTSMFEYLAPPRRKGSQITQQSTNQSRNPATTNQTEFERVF

With `Nc1nc2nc(-c3ccccc3)nc(-c3ccccc3)n2n1`, the IC50 in [1] fell in the range of 0.49 to 100 µM.

On to `O=C(O)CCCc1ccc(N(CCCl)CCCl)cc1` [CHLORAMBUCIL], for which, in [2], the IC50 is 29.1 µM.

Consider `COc1nc(N2CCCCC2)nc([N+]23CC[N+](CCCl)(CC2)CC3)n1`, for which the IC50 lay within 7.4 to 136 µM in assay [2] and 40.3 to 112 µM in assay [3].

With `COC(=O)[C@H](CO)Nc1nc(OC)nc([N+]23CC[N+](CCCl)(CC2)CC3)n1`, the IC50 in assay [2] fell in the range of 7.4 to 136 µM; in [3] it was 40.3 to 112 µM.

Turning to `Cc1ccc(Nc2nc(-c3ccccc3)nc(N3CCNCC3)n2)cc1`, the IC50 was found to be 2.23 µM in [4], 1.01 µM in assay [5] and 1.06 µM in [6].

On to `CCCCNc1nc(OC)nc([N+]23CC[N+](CCCl)(CC2)CC3)n1`, for which the IC50 in assay [2] lay in the range of 7.4 to 136 µM; in assay [3], 40.3 to 112 µM.

`c1ccc(Nc2nc(Nc3ccc(-c4nc5ccccc5[nH]4)cc3)nc(N3CCOCC3)n2)cc1`: the IC50 in assay [7], in assay [8], in assay [9] and in [10] was 4.8 to 15.1 µM in each case.

In the case of `N#Cc1ccc(Cn2cc(/C=N/Nc3nc(N4CCOCC4)nc(N4CCOCC4)n3)c3ccccc32)cc1`, the IC50 in assay [11] came to 0.05 µM.

As to `Cc1cc(=O)n2c(n1)N=C(N)NC2c1ccco1` (configuration not stated), the IC50 in assay [12] was 6 µM.

With `Nc1nc(COC(=O)c2ccc([N+](=O)[O-])cc2)nc(Nc2ccccc2)n1`, in [13], the IC50 stood at 0.025 µM.

For the molecule `COc1nc(NCc2ccccc2)nc([N+]23CC[N+](CCCl)(CC2)CC3)n1`, the IC50 in assay [2] fell in the range of 7.4 to 136 µM; in assay [3], 40.3 to 112 µM.

Regarding `CCCCCCCCCCCCCCCCOC(=O)c1cc(C(=O)OCCCCCCCCCCCCCCCC)cc(-n2cc(-c3nc(-c4cn(-c5cc(C(=O)OCCCCCCCCCCCCCCCC)cc(C(=O)OCCCCCCCCCCCCCCCC)c5)nn4)nc(-c4cn(-c5cc(C(=O)OCCCCCCCCCCCCCCCC)cc(C(=O)OCCCCCCCCCCCCCCCC)c5)nn4)n3)nn2)c1`, the IC50 in assay [14] worked out at 3.7 µg/mL (≈ 1.74 µM); in assay [15], 2.95 µg/mL (≈ 1.39 µM).

Turning to `FC(F)c1nc2ccccc2n1-c1nc(N2CCOCC2)nc(N2CCOCC2)n1`, the Activity in assay [16] was 4.7%.

`COc1nc(N2CCOCC2)nc([N+]23CC[N+](CCCl)(CC2)CC3)n1`: the IC50 in [2] lay in the range of 7.4 to 136 µM; in assay [3] it was 40.3 to 112 µM.

`COc1nc(Nc2ccc(C)cc2)nc([N+]23CC[N+](CCCl)(CC2)CC3)n1`: the IC50 in [2] is 7.4 µM; in assay [3], 40.3 to 112 µM.

For `C=CCc1cc(C)cc(/C=N/NC(=O)Nc2nc(N3CCOCC3)nc(N3CCOCC3)n2)c1O`, the IC50 in assay [11] turned out to be 0.75 µM; in assay [17] it was 0.34 µM; in assay [18] it was 0.6 µM.

Turning to `Clc1ccc(Cn2cc(/C=N/Nc3nc(N4CCOCC4)nc(N4CCOCC4)n3)c3ccccc32)cc1Cl`, inhibition in assay [11] was half-maximal at 0.07 µM (IC50).

As for `Cc1cc(C)n(-c2nc(N/N=C\c3c[nH]c4ccccc34)nc(Nc3ccc(Br)cc3)n2)n1`, the IC50 in assay [19] amounted to 8.9 µM; in assay [20], 7.5 µM; in assay [21], 8.6 µM; in assay [22] it was 6.7 µM; in assay [23], 7.1 µM.

For `COC(=O)[C@H](Cc1ccccc1)Nc1nc(OC)nc([N+]23CC[N+](CCCl)(CC2)CC3)n1`, the results for the IC50 in assay [2] and in assay [3] were 7.4 to 136 µM and 40.3 to 112 µM, respectively.

Take `COc1ccc(CNc2nc(NCc3ccc(OC)cc3)c3ncn(C(C)C)c3n2)cc1` [MYOSEVERIN]: the IC50 in assay [24] worked out at 3.6 µM.

As for `CC[C@H](CO)Nc1nc(NCc2ccccc2)n2ncc(C(C)C)c2n1`, the IC50 in assay [25], in assay [26], in [27] and in [28] was 0.043 to 0.5 µM each time.

Take `COC(=O)[C@H](C)Nc1nc(OC)nc([N+]23CC[N+](CCCl)(CC2)CC3)n1`: the IC50 in assay [2] was 7.4 to 136 µM; in assay [3] it was 40.3 to 112 µM.

As to `COc1nc(Nc2ccccc2)nc([N+]23CC[N+](CCCl)(CC2)CC3)n1`, the IC50 was 12.3 µM in assay [2] and 40.3 to 112 µM in assay [3].
